“And” between values parts separate entries of the source, which are not always exact repeats. Equal entries are not always repeated. Where two headings read alike, the source gives them in different places.

One assay addresses T1, Kv7.2/3 channels (Homo sapiens, UniProt O43525+O43526).
T1 construct: expressed in transfected cells; host or cells: CHO cells
As to the kind of experiment: Kv7.2/3 channels coexpressed in CHO cells, whole-cell patch-clamp. The format is cell-based. The settings on record: for V50: control V50=−32.1±8.9 mV; for fold increase in current amplitude: stepped from −90 to −50 mV, n=10; for Activity: M-channel modulation, Kv7.2 and Kv7.3 subunits coexpressed in CHO cells; for ΔV50 (mV): left-shift of the activation curve of Kv7.2/3 channels. As for the experimental part: Chinese hamster ovary (CHO) cells were grown in Dulbecco's modified Eagle's medium (DMEM) supplemented with 2 mM glutamine, 10% fetal calf serum and antibiotics. Briefly, 40,000 cells seeded on poly-D-lysine-coated glass coverslips (13 mm diameter) in a 24-multiwell plate were transfected with pIRES-CD8 (0.5 μg) as a marker for transfection, and with Kv7.2 (0.5 μg) and Kv7.3 (0.5 μg) or TRPV1 […] or TRPV6 […].
For electrophysiology, transfected cells were visualized approximately 40 hours following transfection, using anti-CD8 antibody-coated beads. Transfection was performed using Fugene 6 (Roche, Indianapolis Ind., USA) according to the manufacturer's protocol.
Voltage-clamp recordings in CHO cells were performed, using the whole-cell configuration of the patch-clamp technique. Signals were amplified using an Axopatch 200B patch-clamp amplifier (Molecular Devices, Sunnyvale, Calif.), sampled at 2 kHz and filtered at 800 Hz via a 4-pole Bessel low pass filter. […] The patch pipettes were pulled from borosilicate glass (Warner Instrument Corp, USA) with a resistance of 2-5 MΩ. For K^+ current recordings in CHO cells, the intracellular pipette solution contained (in mM): 130 KCl, 1 MgCl2, 5 K2ATP, 5 EGTA, 10 HEPES, adjusted with KOH to pH 7.4 (290 mOsm). The extracellular solution contained (in mM): 140 NaCl, 4 KCl, 1.8 CaCl2, 1.2 MgCl2, 11 glucose, 5.5 HEPES, adjusted with NaOH to pH 7.4 (310 mOsm).
(§1) Data analysis was performed using the Clampfit program (pClamp 9.2, Molecular Devices), Microsoft Excel (Microsoft) and Prism 4.0 (GraphPad). Chord conductance (G) was calculated by using the following equation: G=I/(V−Vrev) where I corresponds to the current amplitude measured at the end of the pulse and Vrev, the calculated reversal potential. G was estimated at various test voltages V and then, normalized to a maximal conductance value, Gmax. Activation curves were fitted by one Boltzmann distribution: G/Gmax=1/{1+exp[(V50−V)/s]} where V50 is the voltage at which the current is half-activated and s is the slope factor. All data were expressed as mean±SEM. Statistically significant differences were assessed by Student's t-test. Analysis of sEPSCs and sIPSCs was done using the Clampfit program (pClamp 9.2, Molecular Devices) and included evaluation of the individual events as well as the average event amplitude and the integral of the event (total charge transfer).
In these studies, the impact of the compounds on M-channel activity was measured by the heterologous coexpression of Kv7.2 and Kv7.3 subunits in CHO cells.

The test system of assay [1] is primary hippocampal neurons. As to the kind of experiment: Spontaneous and miniature EPSCs/IPSCs in primary hippocampal neurons, voltage-clamp. In kind it is cell-based, rat. The following applies: for effect on amplitude of miniature EPSCs and IPSCs: NH29 at 25 μM, data not shown. The procedure:
For hippocampal neuronal cultures, Sprague-Dawley rat embryos (E18) were removed by caesarian section and their hippocampi were dissected out. The tissue was digested with papain for 20 min, triturated to a single-cell suspension, and plated at a density of 40,000 cells per ml on a substrate of bovine collagen type IV and 100 μg/ml poly-L-lysine in 13 mm diameter glass coverslips of a 24-multiwell plate. The culture medium consisted of Modified Eagle's Medium containing 5% horse serum (Biological Industries, Beit HaEmek, Israel), B-27 neuronal supplement (Invitrogen, Carlsbad, Calif.), 100 U/ml penicillin, 100 μg/ml streptomycin, and 2 mM glutamine. D-glucose was supplemented to a final concentration of 6 g/l. Cytosine-1-D-arabinofuranoside (5 μM) was added after 5 days to arrest glial cell proliferation.
For electrophysiological recordings hippocampal neurons were used at 10-14 days in culture. All cultures were maintained at 37° C. in humidified air containing 5% CO2.
Spontaneous excitatory postsynaptic currents (EPSCs) were recorded in the voltage-clamp configuration of the whole-cell patch-clamp technique at a holding potential of −70 mV as previously described; the extracellular solution contained (in mM) 160 NaCl, 2.5 KCl, 10 HEPES, 10 glucose, 2 CaCl2; pH 7.3 (325 mOsm), to which 30 μM picrotoxin and 10 μM bicuculline methyl iodide were added. The intracellular solution consisted (in mM) of 130 K-gluconate, 10 KCl, 1.1 EGTA, 10 HEPES, 1 MgCl2, 2 Na2ATP, 0.1 CaCl2 and 5 QX314Br to block Na^+ currents; pH 7.2 (315 mOsm).
Spontaneous inhibitory postsynaptic currents (IPSCs) were recorded at a holding potential of −70 mV; the extracellular solution contained (in mM) 160 NaCl, 2.5 KCl, 10 HEPES, 10 glucose, 2 CaCl2; pH 7.3 (325 mOsm), to which 10 μM NBQX and 10 μM AP-5 were added. The intracellular solution consisted (in mM) of 144 CsCl, 10 HEPES, 1.1 EGTA, 0.1 CaCl2, 5 MgCl2, 2 Na2ATP, 5 QX314 Br; pH 7.3 (315 mOsm).
as §1
Because of their slow activation and their lack of inactivation, M-channels could modulate neuronal activity during repetitive spike discharge and tune neurotransmitter release. FIG. 6 illustrates the effect of NH25 on synaptic transmission and transmitter release. Spontaneous excitatory and inhibitory post-synaptic currents (sEPSCs and sIPSCs) were recorded from dense cultures of primary hippocampal neurons, using the voltage-clamp configuration of the whole-cell patch-clamp technique.

Consider `O=C(Cc1cc([N+](=O)[O-])ccc1Nc1c(Cl)cccc1Cl)OCCO` [NH25], for which the figures for the “left-shift of Kv7.2/3 activation curve compared to control” value (“left-shift of Kv7.2/3 activation curve” for short) at Kv7.2/3 channels (10 μM), on Kv7.2/3 channels (50 μM) and on Kv7.2/3 channels (200 μM) were −11 mV, −21 mV and −31 mV, respectively. In addition, the V50 at Kv7.2/3 channels (10 μM NH25, n=5) is −43.6±9.0 mV; at Kv7.2/3 channels (50 μM NH25, n=5) it was −53.5±9.3 mV; on Kv7.2/3 channels (200 μM NH25, n=5), −63.1±2.0 mV. The “fold increase in current amplitude” value was 3.2 fold on Kv7.2/3 channels (10 μM) and 9.1 fold at Kv7.2/3 channels (50 μM). At Kv7.2/3 channels, the Activity entry is “Opener”. Also, the “deactivation kinetics τdeact” value on Kv7.2/3 channels (NH25, tail currents at −60 mV, control 129±22 ms, n=5) came out at 284 ± 43 ms. In addition, the “ΔV50 (mV)” value on Kv7.2/3 channels is −31.0 mV and −31 mV. In addition, on Kv7.2/3 channels (opener potency, concentration-dependent left-shift in half-activation potential ΔV50, sigmoidal fit, read-out: EC50), the EC50 (in general, the midpoint of the concentration-response curve) was 22 µM. Moreover, the “effect on amplitude and kinetics of sIPSCs” value in assay [1] (25 μM) is on record as “did not significantly affect”. Also, in assay [1] (25 μM), the “reduction of charge transfer within the bursts of sEPSCs” value is “about 50%”. For the same molecule, the “reduction of total charge transfer of sEPSCs” value in assay [1] (25 μM) is “about 50%”. For the same molecule, the “effect on burst duration of sEPSCs” value in assay [1] (25 μM, holding potential −70 mV) is listed as “markedly reduced”. Also, the “effect on amplitude of miniature EPSCs and IPSCs” value in assay [1] is listed as “did not affect”. In addition, the inhibition – broadly, the relative decrease from the control value, in per cent – at 25 µM in assay [1] (Rattus norvegicus, Hippocampal neuron, 25 μM, holding potential −70 mV, read-out: inhibition of sIPSCs frequency of spontaneous occurrence) is above 98%.
As to `O=C(Cc1cc([N+](=O)[O-])cc([N+](=O)[O-])c1Nc1c(Cl)cc([N+](=O)[O-])cc1Cl)NCCO` [NH29], on Kv7.2/3 channels, a half-maximal response (EC50) required 14 ± 2 µM, the Activity result was “Opener” and the “ΔV50 (mV)” value is on record as −31.3 mV. Moreover, the “left-shift of Kv7.2/3 activation curve” value on Kv7.2/3 channels (10 μM) is on record as −13 mV. In addition, the “fold increase of Kv7.2/3 current amplitude” value at Kv7.2/3 channels (25 μM, at −50 mV, n=5) was 9.4±1.2 fold. For the same molecule, at Kv7.2/3 channels (100 μM), the “left-shift of Kv7.2/3 activation curve” value is recorded as −31 mV. Besides, the EC50 at Kv7.2/3 channels (opener potency, concentration-dependent left-shift in half-activation potential ΔV50, sigmoidal fit) came out at 14 µM. In assay [1], the “effect on amplitude of miniature EPSCs and IPSCs” value is given as “did not affect”.
